In US6060608A, “Analogs of CC-1065 and the duocarmycins” (The Scripps Research Institute, priority 1999, dated 2000):

Columns and labels:
[1] = tested on: w794 DNA, 5'-AATTA high affinity site; assay: Relative rate of DNA alkylation at the w794 5'-AATTA high affinity site; assay type: biochemical, SV40; conditions: 25° C.
Protocol: Rate of DNA Alkylation. The relative rates of DNA alkylation for the natural enantiommers of CCBI-TMI (35) and CCBI-indole2 (37) versus those of the corresponding CBI and MCBI agents were measured at the single high affinity site in w794, 5'-AATTA. The relative rates earlier studies of DNA alkylation for MCBI-TMI, CBI-TMI, and duocarmycin SA were determined to be quite similar at 4° C., 1.8:1.0:0.9, respectively. […] In prior studies, we have highlighted similar observations with agents that span a much larger range of relative reactivities.
The DNA alkylation selectivity and efficiency of the natural enantiomers of 304-307 were compared with that of 1 in w794 DNA. […] These trends in the overall efficiency of DNA alkylation parallel the relative trends in cytotoxic potency.
(§1) DNA Alkylation Relative Rate of (+)-CCBI-TMI (35), (+)-CBI-TMI, and (+)-MCBI-TMI. Following the procedure detailed above, Eppendorf tubes containing 5' end-labeled w794 DNA (9 μL) in TE buffer (pH 7.5) were treated with (+)-CCBI-TMI (35), (+)-CBI-TMI, or (+)-MCBI-TMI (1 μL, 10^-6 M in DMSO). The solutions were mixed and incubated at 25° C. for 2, 4, 6, 9, 12, 15, and 24 h, respectively. Subsequent isolation of the alkylated DNA by EtOH precipitation, resuspension in TE buffer (10 μL, pH 7.5), thermolysis (30 min, 100° C.), PAGE, and autoradiography were conducted as detailed above. Relative rates for alkylation at the w794 high-affinity 5'-AATTA site were derived from the slopes of the plots of percent integrated optical density (IOD) of the high-affinity alkylation cleavage bands versus time.
as §1, with “(+)-CCBI-indole2 (37), (+)-CBI-indole2,” for “(+)-CCBI-TMI (35), (+)-CBI-TMI,”, “(+)-MCBI-indole2.” for “(+)-MCBI-TMI.”, “(+)-CCBI-indole2 (37), (+)-CBI-indole2, and (+)-MCBI-indole2” for “(+)-CCBI-TMI (35), (+)-CBI-TMI, or (+)-MCBI-TMI”

w794 duplex DNA = assay: DNA alkylation selectivity and efficiency within w794 DNA, thermally-induced strand cleavage and PAGE; assay type: biochemical, SV40; conditions: for DNA alkylation less efficient than 1 or 305: 25° C., 24 h
Source text: DNA Alkylation Selectivity and Efficiency. The DNA alkylation properties of the agents were examined within w794 duplex DNA, a 144 base-pair segment of duplex DNA for which comparative results are available for related agents. The alkylation site identification and the assessment of the relative selectivity among the available sites were obtained by thermally-induced strand cleavage of the singly 5' end-labeled duplex DNA after exposure to the agents. Following treatment of the end-labeled duplex DNA with a range of agent concentrations, the unbound agent was removed by EtOH precipitation of the DNA. Redissolution of the DNA in aqueous buffer, thermolysis (100° C., 30 min) to induce strand cleavage at the sites of DNA alkylation, denaturing high resolution polyacrylamide gel electrophoresis (PAGE) adjacent to Sanger dideoxynucleotide sequencing standards, and autoradiography led to identification of the DNA cleavage and alkylation sites. The DNA alkylation reaction selectivities observed under the incubation conditions for the agents detailed herein have proven identical to the alkylation selectivities observed with shorter or extended reaction periods or when the reactions were conducted at different temperatures (37 or 4° C., 0.5-7 d). As discussed below, the rates and efficiencies but not final relative efficiencies of DNA alkylation were altered by changing the reaction temperatures.
DNA Alkylation Properties. […] The DNA alkylation reaction was examined within w794 DNA for which comparative results are available for past agents. The alkylation site identification was obtained by thermal strand cleavage of the singly 5' end-labeled duplex DNA after exposure to the agents. Following treatment of the labeled DNA with a range of agent concentrations, the unbound agent was removed by EtOH precipitation of the DNA. Redissolution of the DNA in aqueous buffer, thermolysis at 100° C. (30 min) to induce depurination and strand cleavage at the adenine N3 or guanine N3 minor groove alkylation sites, denaturing high resolution PAGE adjacent to Sanger sequencing standards and autoradiography provided the DNA cleavage and alkylation sites.
DNA Alkylation Studies: selectivity and Efficiency. General procedures, the preparation of singly ^32 P 5' end-labeled double stranded DNA, the agent binding studies, gel electrophoresis, and autoradiography were conducted according to standard procedures. Eppendorf tubes containing the 5' end-labeled DNA (9 μL) in TE buffer (10 mM Tris, 1 mM EDTA, pH 7.5) were treated with the agent in DMSO (1 μL at the specified concentration). The solution was mixed by vortexing and brief centrifugation and subsequently incubated at 4 or 25° C. for 24 h (natural enantiomers) and 25 or 37° C. (unnatural enantiomers) for 72 h. The covalently modified DNA was separated from unbound agent by EtOH precipitation and resuspended in TE buffer (10 μL). The solution of DNA in an Eppendorf tube sealed with parafilm was warmed at 100° C. for 30 min to induce cleavage at the alkylation sites, allowed to cool to 25° C. and centrifuged. Formamide dye (0.03% xylene cyanol FF, 0.03% bromophenol blue, 8.7% Na2 EDTA 250 mM) was added (5 μL) to the supernatant. Prior to electrophoresis, the sample was denatured by warming at 100° C. for 5 min, placed in an icebath, and centrifuged, and the supernatant (3 μL) was loaded directly onto the gel. Sanger dideoxynucleotide sequencing reactions were run as standards adjacent to the reaction samples. Polyacrylamide gel electrophoresis (PAGE) was run on an 8% sequencing gel under denaturing conditions (8 M urea) in TBE buffer (100 mM Tris, 100 mM boric acid, 0.2 mM Na2 EDTA) followed by autoradiography.
DNA Alkylation of w794 DNA. Eppendorf tubes containing the 5'-end labeled DNA (9 μL) in TE buffer (10 mM Tris, 1 mM EDTA, pH 7.2) were treated with the agent in DMSO (1 μL at the specified concentration). […]

[2] = In vitro cytotoxic activity (cell line not given); assay type: cell-based; conditions: for less potent than ent-(-)-1: unnatural enantiomers
L1210 = assay: In vitro cytotoxic activity, L1210; conditions: for relative cytotoxic potency of natural versus unnatural enantiomers: N-BOC derivatives
[3] = Aqueous solvolysis reactivity followed by UV; assay type: physicochemical
Protocol: The reactivity of 217-219 was assessed by following the solvolysis spectrophotometrically by UV at both pH 3 (50% CH3 OH-buffer, buffer=4:1:20 (v/v/v) 0.1 M citric acid, 0.2 M Na2 HPO4, H2 O) and pH 7 (1:1 H2 O--CH3 OH) measuring both the disappearance of the long-wavelength absorption band of the F2 CBI chromophore and the appearance of a short-wavelength absorption band attributable to the ring open products (FIG. 31).
Aqueous Solvolysis Reactivity. pH 3: N-BOC-CCBI (25, 100 μg) was dissolved in CH3 OH (1.5 mL) and mixed with pH 3 aqueous buffer (1.5 mL). The buffer contained 4:1:20 (v:v:v) 0.1 M citric acid, 0.2 M Na2 HPO4 and H2 O, respectively. The solvolysis solution was sealed and kept at 25° C. protected from light. The UV spectrum was measured at regular intervals every 2 h during the first day, every 12 h for another week, and every 24 h for an additional week. The decrease in the long-wavelength absorption at 322 nm and the increase in the short-wavelength absorption at 268 nm were monitored, FIG. 1.
pH 2: Samples of 25 (100 μg) and 26 (50 μg) were dissolved in CH3 OH (1.5 mL) and the solutions were mixed with aqueous buffer (pH 2.05, 1.5 mL). The buffer contained 4:1:20 (v:v:v) 1.0 M citric acid, 0.2 M Na2 HPO4, and H2 O, respectively. Immediately after mixing, the UV spectra of the solutions were measured against a reference solution containing CH3 OH (1.5 mL) and the aqueous buffer (1.5 mL) and these readings were used for the initial absorbance values. The solutions were stoppered, protected from the light, and allowed to stand at 25° C. UV spectra were recorded at regular intervals until constant values were obtained for the long and short wavelength absorbances. The solvolysis rate constants were determined from the slope of the lines obtained from linear least squares treatment of plots of ln[(Af -Ai)/(Af -A)] versus time using the short wavelength measurements for 25 and long wavelength measurements for 26).

[4] = natural enantiomers, 37° C., 72 h

Compound: COc1ccc2c(c1)C13CC1CN(C(=O)c1cc4cc(NC(=O)c5cc6ccccc6[nH]5)ccc4[nH]1)C3=CC2=O (single isomer, unassigned) [MCBI-indole2]
- relative rate of DNA alkylation, indole2 series [1]: 1.4 ×

Compound: N#Cc1ccc2c(c1)C13CC1CN(C(=O)c1cc4cc(NC(=O)c5cc6ccccc6[nH]5)ccc4[nH]1)C3=CC2=O (single isomer, unassigned) [compound 37]
- relative rate of DNA alkylation, indole2 series [1]: 2.5 ×
- DNA alkylation more efficient than MCBI or CBI based agents (w794 duplex DNA): 1.5-2 ×
- DNA alkylation sequence selectivity (w794 duplex DNA): stronger preference for the fourth base to be A or T but that preference extended to include a fifth 5' A or T base

Compound: COC(=O)c1cc2c([nH]1)C(=O)C=C1N(C(=O)c3cc4ccccc4[nH]3)CC3CC123 (single isomer, unassigned) [compound 304]
- reduction in cytotoxic potency relative to duocarmycin SA ([2]; natural enantiomers): 6.5 -fold
- less potent than ent-(-)-1 [2]: 13-18 ×
- DNA alkylation less efficient than 1 or 305 (w794 duplex DNA; natural enantiomers): 20 ×

Compound: COC(=O)c1cc2c([nH]1)C(=O)C=C1N(C(=O)c3cc4ccc(OC)cc4[nH]3)CC3CC123 (single isomer, unassigned) [compound 306]
- cytotoxic activity relative to duocarmycin SA or 304 (words) [2]: intermediate activity
- properties relative to duocarmycin SA or 304 [2]: properties more analogous to 304
- less potent than ent-(-)-1 [2]: 13-18 ×
- DNA alkylation less efficient than 1 or 305 (w794 duplex DNA; natural enantiomers): 5-10 ×

Compound: COC(=O)c1cc2c([nH]1)C(=O)C=C1N(C(=O)c3cc4cccc(OC)c4[nH]3)CC3CC123 (single isomer, unassigned) [compound 307]
- cytotoxic activity relative to duocarmycin SA or 304 (words) [2]: equipotent with (+)-304
- properties relative to duocarmycin SA or 304 [2]: properties more analogous to 304
- less potent than ent-(-)-1 [2]: 13-18 ×
- DNA alkylation less efficient than 1 or 305 (w794 duplex DNA; natural enantiomers): 5-10 ×

Compound: COC(=O)c1cc2c([nH]1)C(=O)C=C1N(C(=O)c3cc4cc(OC)ccc4[nH]3)CC3CC123 (single isomer, unassigned) [ent-(-)-305]
- cytotoxic activity relative to duocarmycin SA or 304 (words) [2]: more closely approached the full activity of ent-(-)-1

Compound: CC(C)(C)OC(=O)N1CC2CC23C1=CC(=O)c1ccccc13 (stereo not drawn) [N-BOC-CBI, reference compound]
- relative cytotoxic potency of natural versus unnatural enantiomers (L1210): 11 ×
- solvolysis stability/reactivity [3]: stable
- half-life ([3]; 50% ch3oh-buffer, pH 3): 133 h
- solvolysis rate constant k ([3]; pH 3, 50% CH3OH-buffer): 1.45e-06 s⁻¹
- concentration at which both enantiomers alkylate DNA (w794 duplex DNA; FIG. 24, 37° C., 48 h): 10^-2 M

Compound: COc1ccc2c(c1)C13CC1CN(C(=O)OC(C)(C)C)C3=CC2=O (stereo not drawn) [N-BOC-MCBI, reference compound]
- relative cytotoxic potency of natural versus unnatural enantiomers (L1210): 2 ×
- concentration at which DNA alkylation is detectable (w794 duplex DNA; [4]): 10^-3 M
- concentration at which DNA alkylation is prominent (w794 duplex DNA; [4]): 10^-2 M

Compound: COc1cc2cc(C(=O)N3CC4CC45C3=CC(=O)c3ccc(C#N)cc35)[nH]c2c(OC)c1OC (stereo not drawn) [compound 35]
- relative rate of DNA alkylation, TMI series ([1]; 10^-6 M): 2.5 ×
- DNA alkylation more efficient than MCBI or CBI based agents (w794 duplex DNA): 1.5-2 ×
- DNA alkylation sequence selectivity (w794 duplex DNA): strong preference but not absolute requirement for the fourth 5' base to be A or T versus G or C

Compound: CCOC(=O)CCC(=O)N1CC2CC23C1=CC(=O)c1ccccc13 (stereo not drawn) [compound 116, N^2-(4-ethoxy-1,4-dioxobutyl)-1,2,9,9a-tetrahydrocyclopropa[c]benz[e]indole-4-one]
- cytotoxic activity, ring opened precursor 115 versus cyclopropane 116 (L1210; L1210): no distinctions were observed
- IC50 (L1210; Mus musculus, L1210, read-out: cytotoxic activity IC50): 5 to 6 nM
- more effective at alkylating DNA than N-BOC-CBI (123) (w794 duplex DNA; natural enantiomer): 10-100 ×
